Laboratory results taken from ChEMBL document CHEMBL1201862, “PubChem BioAssay data set” (2004).
Calls of active or inactive are those of the source.

Key:
Large T antigen = Large T antigen (Simian virus 40, UniProt P03070); assay type: functional, Betapolyomavirus macacae;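 note: Confirmatory-stage PubChem screen for compounds that inhibit SV40 T antigen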
[1] = biological target: Mitochondrial peptide methionine sulfoxide reductase (Bos taurus, UniProt P54149); assay: Absorbance-based biochemical high throughput dose response assay for activators of Methionine sulfoxide reductase A (MsrA).; assay type: functional
[2] = biological target: Glucose-6-phosphate 1-dehydrogenase (Homo sapiens, UniProt P11413); assay: inhibition of Homo sapiens G6PD, dose series – biochemical, fluorescence, selectivity assay for P. falciparum G6PD inhibitor project, dose response (AID 504792); assay type: functional
[3] = biological target: DNA dC->dU-editing enzyme APOBEC-3A (Homo sapiens, UniProt P31941); assay: A3A deaminase inhibition for selectivity – biochemical, dose response (AID 504722); assay type: functional
[4] = biological target: DNA dC->dU-editing enzyme APOBEC-3G (Homo sapiens, UniProt Q9HC16); assay: Dose Response confirmation of small molecule APOBEC3G DNA Deaminase Inhibitors via a fluorescence-based single-stranded DNA deaminase assay. [Related pubchem assays (depositor defined):AID493012, AID493028]; assay type: functional
[5] = reduction of Shn3 3'UTR-driven luciferase in osteoblasts – cell-based, Clone20 osteoblasts, firefly luciferase, cherry-picked, dose response (AID 624132); assay type: functional;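 note: firefly luciferase luminescence from reporter carrying the Shn3 3'UTR in osteoblasts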
Protein Wnt-3a = Protein Wnt-3a (Mus musculus, UniProt P27467); assay: antagonism of Wnt3a pathway luciferase reporter – Wnt-LIGHT cells, luminescence, selectivity assay for Gli-SUFU antagonist project, dose response (AID 651570); assay type: functional; conditions: read-out: IC50_Mean;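 note: Wnt-LIGHT reporter cells stimulated with conditioned medium from Wnt3a-producing cells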
[6] = loss of viability in HepG2 cells – cell-based, CellTiter-Glo, cherry-picked, cytotoxicity control for Shn3 inhibitor project, dose response (AID 624134); assay type: functional
BJ [7] = assay: BJ-TERT-LT-ST fibroblast viability loss – cell-based, RAS-independent, luminescence, dose response (AID 1935); assay type: functional; conditions: Homo sapiens;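 note: BJ fibroblasts immortalized with TERT plus LT and ST oncogenes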
BJ [8] = assay: BJ-TERT fibroblast viability loss – cell-based, RAS-independent, luminescence, dose response (AID 1933); assay type: functional; conditions: Homo sapiens
BJ [9] = assay: cells; assay type: functional, cell-based; conditions: Homo sapiens
[10] = DRD fibroblast viability loss – cell-based, non-viral oncogenic, luminescence, dose response (AID 1934); assay type: functional; conditions: Homo sapiens
BJ [11] = assay: growth inhibition of engineered Ras-driven BJ cells – cell-based, alamar blue fluorescence, cherrypicked samples, dose response (AID 2631); assay type: functional; conditions: Homo sapiens;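 note: confirmatory dose-response assay in RAS-dependent BJ fibroblasts engineered with TERT, LT and ST, with cytotoxicity read by fluorescence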
Vero [12] = assay: cells; assay type: functional; conditions: Chlorocebus sabaeus
Vero [13] = assay: cells; assay type: functional, cell-based; conditions: Chlorocebus sabaeus
[14] = alpha-synuclein stem-loop luciferase translation blockers – H4 neuroglioma cells, luminescence, confirmation (AID 1988); assay type: functional, cell-based
[15] = luciferase reporter signal suppression in cells – H4 neuroglioma cells, luminescence, dose response (AID 1990); assay type: functional, cell-based
[16] = Luminescence Cell-Based Dose Response HTS to Identify Inhibitors of 5'UTR Stem-Loop Driven Prion Protein mRNA Translation in H4 Neuroglioblastoma Cells. [Related pubchem assays: 1827 (Project Summary), 1813 (Primary HTS)]; assay type: functional
INS1 = assay: INS-1E survival protection against cytokine death – cell-based, luminescence, retest, dose response (AID 449756); assay type: functional; conditions: Rattus norvegicus;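 note: cell death triggered by IL-1 beta plus TNF-alpha plus IFN-gamma mixture; protective hits raise ATP signal compared with cytokine alone wells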
[17] = HEK-293T cell viability reduction – luminescence, B-cell screen hits, cytotoxicity control for BCR NF-kB inhibitor project, dose response (AID 489021); assay type: functional, cell-based;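 note: HEK-293T cells carrying an NF-kB luciferase reporter; cells exposed to compound for about 14 hours before viability readout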
[18] = biological target: T1, High affinity choline transporter 1 (Homo sapiens, UniProt Q9GZV3); assay: human choline transporter blockers, potency – cell-based, 5-point CRC, membrane potential dye, dose response (AID 504840); assay type: functional
T1 sequence (Q9GZV3 whole entry): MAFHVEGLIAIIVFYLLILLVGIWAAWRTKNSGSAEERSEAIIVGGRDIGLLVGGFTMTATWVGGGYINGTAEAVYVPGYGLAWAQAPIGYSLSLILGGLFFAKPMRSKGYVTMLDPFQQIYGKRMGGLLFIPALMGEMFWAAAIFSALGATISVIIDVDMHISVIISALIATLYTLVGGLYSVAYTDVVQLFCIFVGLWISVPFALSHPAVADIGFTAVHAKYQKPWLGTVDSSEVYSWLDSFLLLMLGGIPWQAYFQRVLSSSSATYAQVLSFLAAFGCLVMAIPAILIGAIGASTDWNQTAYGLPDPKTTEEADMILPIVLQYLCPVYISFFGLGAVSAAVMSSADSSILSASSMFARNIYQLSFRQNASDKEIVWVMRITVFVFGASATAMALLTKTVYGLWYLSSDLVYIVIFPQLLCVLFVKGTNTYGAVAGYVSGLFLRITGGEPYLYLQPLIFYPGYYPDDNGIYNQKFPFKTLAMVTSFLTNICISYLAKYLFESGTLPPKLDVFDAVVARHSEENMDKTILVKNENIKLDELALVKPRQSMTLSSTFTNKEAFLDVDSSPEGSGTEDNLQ

[19] = biological target: T1, High affinity choline transporter 1; assay: human choline transporter blockers, potency – cell-based, 10-point CRC, membrane potential dye, dose response (AID 588401); assay type: functional;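 note: membrane potential dye fluorescence of choline-evoked depolarization via CHT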
[20] = decrease of insulin promoter-GFP reporter – imaging, high-content screening, mouse beta cells (AID 1628); assay type: functional; conditions: MIN6
[21] = biological target: T2, Heat shock factor protein 1 (Mus musculus, UniProt P38532); assay: enhancement of HSF1-driven luciferase signal – cell-based, NIH3T3, luminescence, dose retest, confirmation (AID 435004); assay type: functional;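 note: stress induced by proteasome inhibitor MG132 added 30 min after compound; luciferase reporter driven by HSF1 response element in NIH3T3 cells; actives raise luminescence as potentiators of the MG132 stress response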
T2 sequence (P38532 whole entry): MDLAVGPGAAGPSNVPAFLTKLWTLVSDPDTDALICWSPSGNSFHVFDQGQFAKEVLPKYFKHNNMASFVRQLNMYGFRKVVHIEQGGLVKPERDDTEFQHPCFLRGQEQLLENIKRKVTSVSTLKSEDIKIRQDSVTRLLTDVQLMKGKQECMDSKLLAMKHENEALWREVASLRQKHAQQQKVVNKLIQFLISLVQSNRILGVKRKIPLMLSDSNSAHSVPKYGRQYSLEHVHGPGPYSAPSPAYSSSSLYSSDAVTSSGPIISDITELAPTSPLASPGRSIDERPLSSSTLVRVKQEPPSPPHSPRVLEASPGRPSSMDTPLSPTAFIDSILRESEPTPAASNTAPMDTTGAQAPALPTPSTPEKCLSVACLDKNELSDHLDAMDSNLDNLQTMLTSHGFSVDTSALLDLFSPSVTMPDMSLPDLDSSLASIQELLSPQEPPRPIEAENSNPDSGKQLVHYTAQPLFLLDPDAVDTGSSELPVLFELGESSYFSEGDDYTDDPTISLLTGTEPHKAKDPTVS

[22] = viability of HCT116 lacking mutant beta-catenin – cell-based, human colon tumor, dose response (AID 1045); assay type: functional;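 note: HCT116 colon tumor cells with beta catenin knocked out; cells exposed to compound for 60 hours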
[23] = MIN6 cell viability loss – mouse insulinoma, cytotoxicity control, dose response (AID 2122); assay type: functional;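 note: confirmatory high-throughput counterscreen run to flag cytotoxic compounds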
[24] = viability of PTEN-deleted HCT116 cells – cell-based, HCT116 PTEN knockout, dose response (AID 1047); assay type: functional;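 note: HCT116 colon tumor cells with PTEN knocked out; cells exposed to compound for 60 hours before readout; potency for loss of cell viability measured by luminescence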

Chain of DNA dC->dU-editing enzyme APOBEC-3G (Q9HC16 whole entry): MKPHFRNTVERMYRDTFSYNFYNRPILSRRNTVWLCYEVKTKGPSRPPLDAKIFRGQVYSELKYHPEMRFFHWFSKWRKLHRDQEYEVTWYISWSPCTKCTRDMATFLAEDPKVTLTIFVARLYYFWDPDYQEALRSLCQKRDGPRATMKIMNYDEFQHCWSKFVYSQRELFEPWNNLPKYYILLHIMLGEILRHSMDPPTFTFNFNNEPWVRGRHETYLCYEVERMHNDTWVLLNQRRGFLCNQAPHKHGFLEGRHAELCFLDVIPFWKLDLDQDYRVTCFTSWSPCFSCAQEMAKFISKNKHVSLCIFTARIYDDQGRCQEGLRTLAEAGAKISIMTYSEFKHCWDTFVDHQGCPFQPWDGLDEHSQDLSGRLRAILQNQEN
Chain of Large T antigen (P03070 whole entry): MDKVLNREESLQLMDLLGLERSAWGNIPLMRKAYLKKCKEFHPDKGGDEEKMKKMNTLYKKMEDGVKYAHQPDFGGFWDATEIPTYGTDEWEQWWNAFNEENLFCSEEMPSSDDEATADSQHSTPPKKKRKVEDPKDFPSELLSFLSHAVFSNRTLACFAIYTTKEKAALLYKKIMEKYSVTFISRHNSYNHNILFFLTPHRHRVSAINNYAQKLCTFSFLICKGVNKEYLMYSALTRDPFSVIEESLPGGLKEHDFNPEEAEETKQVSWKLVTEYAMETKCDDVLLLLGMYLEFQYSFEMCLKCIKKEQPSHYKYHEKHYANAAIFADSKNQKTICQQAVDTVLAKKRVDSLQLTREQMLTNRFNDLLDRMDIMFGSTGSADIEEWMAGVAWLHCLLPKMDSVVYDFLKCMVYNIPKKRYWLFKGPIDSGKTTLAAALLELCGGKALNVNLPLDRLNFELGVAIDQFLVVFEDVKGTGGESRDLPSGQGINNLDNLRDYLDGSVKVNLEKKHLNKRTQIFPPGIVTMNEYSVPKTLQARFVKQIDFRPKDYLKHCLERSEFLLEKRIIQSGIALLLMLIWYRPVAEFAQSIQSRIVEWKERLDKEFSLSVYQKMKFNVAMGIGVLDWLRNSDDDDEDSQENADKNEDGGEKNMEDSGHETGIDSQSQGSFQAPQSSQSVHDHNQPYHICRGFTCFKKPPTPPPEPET
Chain of DNA dC->dU-editing enzyme APOBEC-3A (P31941 whole entry): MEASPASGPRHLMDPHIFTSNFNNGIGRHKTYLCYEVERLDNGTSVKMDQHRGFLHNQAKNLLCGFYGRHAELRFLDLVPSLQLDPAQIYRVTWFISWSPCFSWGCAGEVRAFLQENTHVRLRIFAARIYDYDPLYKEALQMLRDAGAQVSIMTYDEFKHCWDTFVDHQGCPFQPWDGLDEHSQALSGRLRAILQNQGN
Chain of Glucose-6-phosphate 1-dehydrogenase (P11413 whole entry): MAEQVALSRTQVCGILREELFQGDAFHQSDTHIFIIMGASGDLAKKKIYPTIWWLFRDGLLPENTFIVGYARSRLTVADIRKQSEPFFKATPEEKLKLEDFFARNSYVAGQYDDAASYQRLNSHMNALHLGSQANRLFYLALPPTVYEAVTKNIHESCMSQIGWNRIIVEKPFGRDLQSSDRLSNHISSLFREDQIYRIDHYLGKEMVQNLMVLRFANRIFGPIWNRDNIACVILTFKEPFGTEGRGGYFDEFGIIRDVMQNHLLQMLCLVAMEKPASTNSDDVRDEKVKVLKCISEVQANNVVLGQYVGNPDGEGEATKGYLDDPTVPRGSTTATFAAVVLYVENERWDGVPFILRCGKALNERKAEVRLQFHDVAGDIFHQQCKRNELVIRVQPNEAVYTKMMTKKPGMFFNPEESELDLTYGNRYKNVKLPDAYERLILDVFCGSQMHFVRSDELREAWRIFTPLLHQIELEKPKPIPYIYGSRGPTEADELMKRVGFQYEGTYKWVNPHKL
Chain of Protein Wnt-3a (P27467 whole entry): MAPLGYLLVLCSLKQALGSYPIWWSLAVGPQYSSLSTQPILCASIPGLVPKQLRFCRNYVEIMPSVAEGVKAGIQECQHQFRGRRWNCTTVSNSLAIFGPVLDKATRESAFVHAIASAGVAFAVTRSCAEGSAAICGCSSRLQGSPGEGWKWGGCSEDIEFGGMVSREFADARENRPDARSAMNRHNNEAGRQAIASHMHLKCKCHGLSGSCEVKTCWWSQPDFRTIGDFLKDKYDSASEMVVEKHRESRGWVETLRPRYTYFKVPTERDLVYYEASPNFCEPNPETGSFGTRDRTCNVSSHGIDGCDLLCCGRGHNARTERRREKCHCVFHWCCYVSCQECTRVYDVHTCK
Chain of Mitochondrial peptide methionine sulfoxide reductase (P54149 whole entry): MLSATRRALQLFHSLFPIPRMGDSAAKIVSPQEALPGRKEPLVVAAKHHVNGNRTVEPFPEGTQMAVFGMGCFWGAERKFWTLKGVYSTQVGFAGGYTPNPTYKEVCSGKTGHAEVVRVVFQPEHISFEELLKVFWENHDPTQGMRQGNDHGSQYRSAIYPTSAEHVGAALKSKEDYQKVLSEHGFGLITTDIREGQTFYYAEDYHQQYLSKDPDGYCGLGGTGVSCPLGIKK

With `c1ccc(SSc2ccccn2)nc1` as the compound, how does the IC50 (Large T antigen) read?
Its IC50 is > 100 µM (active).

What about the EC50 [1] of the same compound?
The EC50 was > 104 µM (inactive).

What about the IC50 [2] of the same compound?
The IC50 was > 80 µM (inactive).

What about the IC50 [3] of the same compound?
Its IC50 is > 100 µM (inactive).

And the IC50 [4]?
Its IC50 is 3.88 µM (active).

What does the source list for `COc1cc(NS(=O)(=O)c2ccc(C)cc2C)cc(OC)c1OC`?
AC50 [5]: 4.95 µM (active); IC50 (Protein Wnt-3a): 1.38 µM (active); AC50 [6]: 5.37 µM (active)

What does the source list for `CC1=CC(=O)C=C(C)C1=NOc1ccccc1[N+](=O)[O-]`?
EC50 (BJ [7]): > 75 µM (not active); EC50 (BJ [8]): 17.2 µM (inconclusive); EC50 (BJ [9]): 11.1 µM (inconclusive); EC50 [10]: > 150 µM (not active); EC50 (BJ [11]): > 66.7 µM (inactive)

For `CCOc1ccc(/C=C/c2nc(C#N)c(NCCCN(C)C)o2)cc1`, which CC50 (Vero [12]) is on record?
The CC50 was > 25 µM (active).

What about the IC50 (Vero [13]) of the same compound?
Its IC50 is 21.1 µM (active).

What does the source list for `CC1CC(C)CN(S(=O)(=O)c2ccc(C(=O)NCCCn3ccnc3)cc2)C1` (configuration not stated)?
EC50 (BJ [7]): 4.2 µM (inconclusive); EC50 (BJ [8]): > 150 µM (not active); EC50 [14]: 0.163 µM (active); EC50 [15]: 0.527 µM (active); EC50 (BJ [9]): 5.76 µM (inconclusive); EC50 [10]: 10 µM (inconclusive); EC50 [16]: 0.873 µM (active); AC50 (INS1): 0.437 µM (active); EC50 (BJ [11]): 5.61 µM (active); IC50 [17]: > 80 µM (inactive)

With `CCC(NC(C)c1ccccc1)=C1C(=O)N(C)C(=O)N(C)C1=O` (configuration not stated) as the compound, how does the IC50 [18] read?
Its IC50 is 9.12 µM (active).

And the IC50 [19]?
The IC50 was 8.43 µM (active).

And the IC50 [20]?
Its IC50 is 2.84 µM (active).

And the EC50 [21]?
The EC50 was > 260 µM (inactive).

And the EC50 [22]?
Its EC50 is 50 µM (active).

What about the IC50 [23] of the same compound?
The IC50 was 2.81 µM (active).

What about the EC50 [24] of the same compound?
Its EC50 is 47.9 µM (active).
